Measurements from patent US20090274638A1, “COSMETIC USE OF A C-GLYCOSIDE DERIVATIVE IN COMBINATION WITH ASCORBIC ACID” (L'OREAL, priority 2006, published 2009).

Test system: normal human dermal fibroblasts (NHDF)
Test: type I procollagen ELISA assay on culture medium of fibroblasts after 72 hours incubation
Format: cell-based
Conditions: for Procollagen 1 / %/blank: NHDF, 72 hours; for Procollagen 1: DMEM containing 10% FCS, ELISA on culture medium; for %/blank: procollagen 1 relative to blank, DMEM 10% FCS
Procedure: The efficacy of a combination in accordance with the invention is tested by assaying the procollagen 1. To do this, a composition in accordance with the invention is placed in contact with normal human dermal fibroblasts and the whole is left to incubate for 72 hours before assaying.
The C-glycoside derivative used is C-β-D-xylopyranoside-2-hydroxypropane sold under the name Mexoryl® from Chimex. It is in the form of a solution containing 30% by weight of active material in a 60/40 water/1,2-propanediol mixture.
• Normal human dermal fibroblasts (NHDF) (R8PF2), obtained from a mammary plasty • Type: pool PF2, used at the 8th passage • Culture: 37° C., 5% CO2 • Test culture medium: DMEM (Invitrogen 21969035) • L-glutamine 2 mM (Invitrogen 25030024) • Penicillin 50 IU/ml streptomycin 50 μg/ml (Invitrogen 15070063) • 10% Foetal calf serum (v/v, Invitrogen 10270098).
The normal human dermal fibroblasts (R8PF2) are inoculated in whole DMEM medium and preincubated for 24 hours at 37° C. and 5% CO2. At 80% confluence, the culture medium is replaced with DMEM test medium containing 10% FCS with or without (blank) the products or mixtures to be tested or the reference (TGF-β). The cells are then incubated at 37° C. for 72 hours. Each experimental condition was performed in triplicate.
After incubation, the culture media are harvested and the type I procollagen assay is performed on a sample of medium using a specific ELISA assay kit and according to the supplier's instructions (Procollagen Type I C-Peptide EIA Kit, Bio-Whittaker MK101). An MTT viability test is performed on the cell lawns.

Compound	Procollagen 1 (0.01 mg/ml)	%/blank (0.01 mg/ml)	synthesis of procollagen 1 by the fibroblasts (in words) (tested at 0.01 mg/ml, culturing for 72 hours in DMEM medium containing 10% FCS)	Procollagen 1 (1 mM)	%/blank (1 mM)	amount of procollagen 1 synthesized by the fibroblasts (in words) (tested at 1 mm, culturing for 72 hours in DMEM medium containing 10% FCS)
O=C1O[C@H]([C@@H](O)CO)C(O)=C1O [Ascorbic acid, ascorbic acid]	17052 ng/mL	887%	significantly increases			
CC(O)C[C@@H]1OC[C@@H](O)[C@H](O)[C@H]1O (stereo partly drawn) [C-Glycoside derivative, C-β-D-xylopyranoside-2-hydroxypropane]				1838 ng/mL	96%	does not significantly modify
